Measurements as given in ChEMBL document CHEMBL5528016, “Design, synthesis and evaluation of novel deferasirox derivatives with high antifungal potency in vitro and in vivo” (Eur J Med Chem, 2024).
Converted amounts (≈) assume the structure as drawn. The source made the active and inactive calls. The calls are words filed in the database; no cut-off is given here.

Experiments:
[1] = Hemolytic activity in rabbit Red blood cell at 2 ug/ml relative to control; assay type: toxicity, cell-based, Oryctolagus cuniculus, Erythrocyte; settings: red blood cells, at 2 µg/mL, read-out: Activity
[2] = Antifungal activity against Cryptococcus gattii VGI WM179 assessed as reduction in fungal growth incubated for 72 hrs by broth microdilution method; assay type: functional
[3] = test system: Cryptococcus neoformans; test: Antifungal activity against Cryptococcus neoformans HN1 assessed as reduction in fungal growth incubated for 72 hrs by broth microdilution method; assay type: functional
[4] = Hemolytic activity in rabbit Red blood cell at 64 ug/ml relative to control; assay type: toxicity, cell-based, Oryctolagus cuniculus, Erythrocyte; settings: red blood cells, at 64 µg/mL, read-out: Activity
[5] = test system: Nakaseomyces glabratus; test: Antifungal activity against Candida glabrata YC1-34 assessed as reduction in fungal growth incubated for 48 hrs by broth microdilution method; assay type: functional
[6] = Antifungal activity against Cryptococcus gattii VGI WM178 assessed as reduction in fungal growth incubated for 72 hrs by broth microdilution method; assay type: functional
[7] = test system: Nakaseomyces glabratus; test: Antifungal activity against Candida glabrata 537 assessed as reduction in fungal growth incubated for 72 hrs by broth microdilution method; assay type: functional
[8] = test system: HUVEC; test: Cytotoxicity against HUVEC cells assessed as reduction in cell viability at 0.25 to 64 ug/ml incubated for 2 hrs by CCK-8 assay; assay type: toxicity, cell-based; settings: human, dose 0.25-64 µg/ml
[9] = test system: Cryptococcus neoformans; test: Antifungal activity against Cryptococcus neoformans HN15 assessed as reduction in fungal growth incubated for 72 hrs by broth microdilution method; assay type: functional
[10] = test system: Candida albicans; test: Antifungal activity against Candida albicans SC5314 assessed as reduction in fungal growth incubated for 72 hrs by broth microdilution method; assay type: functional
[11] = test system: [Candida] auris; test: Antifungal activity against Candida auris D12 assessed as reduction in fungal growth incubated for 72 hrs by broth microdilution method; assay type: functional; settings: Candidozyma auris
[12] = test system: Candida tropicalis; test: Antifungal activity against Candida tropicalis 2718 assessed as reduction in fungal growth incubated for 72 hrs by broth microdilution method; assay type: functional
[13] = test system: Nakaseomyces glabratus; test: Antifungal activity against Candida glabrata Y10-15 assessed as reduction in fungal growth incubated for 48 hrs by broth microdilution method; assay type: functional
[14] = Antifungal activity against Cryptococcus gattii VGI SCZ20031 assessed as reduction in fungal growth incubated for 72 hrs by broth microdilution method; assay type: functional
[15] = test system: Nakaseomyces glabratus; test: Antifungal activity against Candida glabrata 203 assessed as reduction in fungal growth incubated for 48 hrs by broth microdilution method; assay type: functional
[16] = test system: Cryptococcus neoformans; test: Antifungal activity against Cryptococcus neoformans 444 assessed as reduction in fungal growth incubated for 72 hrs by broth microdilution method; assay type: functional
[17] = test system: Caco-2; test: Cytotoxicity against human Caco-2 cells assessed as reduction in cell viability at 0.25 to 64 ug/ml incubated for 2 hrs by CCK-8 assay; assay type: toxicity, cell-based; settings: caco-2, 2 h, dose 0.25-64 µg/ml
[18] = Antifungal activity against Cryptococcus gattii VGI SCZ20024 assessed as reduction in fungal growth incubated for 72 hrs by broth microdilution method; assay type: functional
[19] = test system: Candida parapsilosis; test: Antifungal activity against Candida parapsilosis ATCC 22019 assessed as reduction in fungal growth incubated for 72 hrs by broth microdilution method; assay type: functional; settings: Lodderomyces parapsilosis
[20] = test system: Cryptococcus neoformans; test: Antifungal activity against Cryptococcus neoformans BJ3 assessed as reduction in fungal growth incubated for 72 hrs by broth microdilution method; assay type: functional
[21] = test system: Nakaseomyces glabratus; test: Antifungal activity against Candida glabrata 337 assessed as reduction in fungal growth incubated for 48 hrs by broth microdilution method; assay type: functional
[22] = Antifungal activity against Cryptococcus gattii VGI E566 assessed as reduction in fungal growth incubated for 72 hrs by broth microdilution method; assay type: functional
[23] = test system: Cryptococcus neoformans; test: Antifungal activity against Cryptococcus neoformans 20 assessed as reduction in fungal growth incubated for 72 hrs by broth microdilution method; assay type: functional
[24] = Toxicity against ICR mouse assessed as hypertrophy at 50 mg/kg, ip administered at 24 hrs interval for 7 days by hematoxylin and eosin staining based analysis; assay type: organism-based; settings: in vivo, 168 h, time 7 day
[25] = test system: Cryptococcus neoformans; test: Antifungal activity against Cryptococcus neoformans H99 infected in C57BL/6J mouse assessed as reduction in fungal burden in brain at 2 mg/kg, ip; assay type: functional, organism-based
[26] = Toxicity against ICR mouse assessed as reduction in lipid droplet at 20 mg/kg, ip administered at 24 hrs interval for 7 days by hematoxylin and eosin staining based analysis; assay type: organism-based; settings: in vivo, 168 h, time 7 day
[27] = Metabolic stability in mouse liver microsomes assessed as intrinsic clearance; assay type: ADME, Microsome; settings: read-out: CLH
[28] = Toxicity against ICR mouse assessed as enlargement of nucleus in hepatocytes at 50 mg/kg, ip administered at 24 hrs interval for 7 days by hematoxylin and eosin staining based analysis; assay type: organism-based; settings: in vivo, 168 h, time 7 day
[29] = test system: Erythrocyte; test: Hemolytic activity in rabbit Red blood cell at 64 ug/ml; assay type: toxicity, cell-based, Oryctolagus cuniculus; settings: dose 64 µg/ml
[30] = Nephrotoxicity in ICR mouse at 50 mg/kg, ip administered at 24 hrs interval for 7 days by hematoxylin and eosin staining based analysis; assay type: toxicity, organism-based; settings: in vivo, 168 h, time 7 day
[31] = test system: Cryptococcus neoformans; test: Antifungal activity against Cryptococcus neoformans H99 infected in C57BL/6J mouse assessed as reduction in fungal burden in brain at 10 mg/kg, ip; assay type: functional, organism-based
[32] = Metabolic stability in mouse liver microsomes assessed as half life; assay type: ADME, Microsome
[33] = Toxicity against ICR mouse assessed as enlargement of cytoplasm in hepatocytes at 50 mg/kg, ip administered at 24 hrs interval for 7 days by hematoxylin and eosin staining based analysis; assay type: organism-based; settings: in vivo
[34] = test system: Pichia kudriavzevii; test: Antifungal activity against Pichia kudriavzevii 4946 assessed as reduction in fungal growth incubated for 72 hrs by broth microdilution method; assay type: functional
[35] = Metabolic stability in mouse liver microsomes assessed as elimination rate constant; assay type: ADME, Microsome
[36] = test system: Cryptococcus neoformans; test: Antifungal activity against Cryptococcus neoformans H99 infected in C57BL/6J mouse assessed as reduction in fungal burden in lung at 2 mg/kg, ip; assay type: functional, organism-based
[37] = Toxicity against ICR mouse assessed as reduction in lipid droplet at 50 mg/kg, ip administered at 24 hrs interval for 7 days by hematoxylin and eosin staining based analysis; assay type: organism-based; settings: in vivo, 168 h, time 7 day
[38] = test system: Cryptococcus neoformans; test: Antifungal activity against Cryptococcus neoformans H99 infected in C57BL/6J mouse assessed as reduction in fungal burden in lung at 10 mg/kg, ip; assay type: functional, organism-based
[39] = test system: Cryptococcus neoformans; test: Antifungal activity against Cryptococcus neoformans assessed as increase in MIC incubated for 72 hrs in presence of FeCl3 by broth microdilution method; assay type: functional, organism-based
[40] = test system: Cryptococcus neoformans; test: Antifungal activity against Cryptococcus neoformans H99 assessed as reduction in fungal growth incubated for 72 hrs by broth microdilution method; assay type: functional
[41] = Toxicity against ICR mouse assessed as inflammatory cell infiltration at 50 mg/kg, ip administered at 24 hrs interval for 7 days by hematoxylin and eosin staining based analysis; assay type: organism-based; settings: in vivo, 168 h, time 7 day
[42] = Toxicity against ICR mouse assessed as increase in monocytes at 50 mg/kg, ip administered at 24 hrs interval for 7 days by hematoxylin and eosin staining based analysis; assay type: organism-based; settings: in vivo, 168 h, time 7 day
[43] = Toxicity against ICR mouse assessed as glomerular enlargement at 50 mg/kg, ip administered at 24 hrs interval for 7 days by hematoxylin and eosin staining based analysis; assay type: organism-based; settings: in vivo, 168 h, time 7 day

SMILES | MIC [2] | MIC [3] | MIC [5] | MIC [6] | MIC [7] | Activity [8] | MIC [9] | MIC [10] | MIC [11] | MIC [12] | MIC [13] | MIC [14] | MIC [15] | MIC [16] | Activity [17] | MIC [18] | MIC [19] | MIC [20] | MIC [21] | MIC [22] | other results
C[C@@H]1[C@H](O)[C@@H](C)/C=C/C=C/C=C/C=C/C=C/C=C/C=C/[C@H](O[C@@H]2O[C@H](C)[C@@H](O)[C@H](N)[C@@H]2O)C[C@@H]2O[C@](O)(C[C@@H](O)C[C@@H](O)[C@H](O)CC[C@@H](O)C[C@@H](O)CC(=O)O[C@H]1C)C[C@H](O)[C@H]2C(=O)O [AMPHOTERICIN B] | 1 µg/mL (≈ 1.08 µM) | 1 µg/mL (≈ 1.08 µM) | 1 µg/mL (≈ 1.08 µM) | 1 µg/mL (≈ 1.08 µM) | < 0.125 µg/mL | Non-Toxic | 8 µg/mL (≈ 8.66 µM) | 1 µg/mL (≈ 1.08 µM) | 8 µg/mL (≈ 8.66 µM) | 1 µg/mL (≈ 1.08 µM) | 2 µg/mL (≈ 2.16 µM) | 1 µg/mL (≈ 1.08 µM) | 16 µg/mL (≈ 17.3 µM) | 2 µg/mL (≈ 2.16 µM) | Non-Toxic | 1 µg/mL (≈ 1.08 µM) | 0.5 µg/mL (≈ 0.541 µM) | 2 µg/mL (≈ 2.16 µM) | 0.5 µg/mL (≈ 0.541 µM) | 4 µg/mL (≈ 4.33 µM) | hemolysis at 2 ug/ml [1]: > 10%; hemolysis at 64 ug/ml [4]: 100%
O=C(NC1CCS(=O)(=O)C1)c1ccc(-n2nc(-c3ccccc3O)nc2-c2ccccc2O)cc1 (stereo unspecified) | 0.5 µg/mL (≈ 1.02 µM) | < 0.125 µg/mL | < 0.125 µg/mL | 0.25 µg/mL (≈ 0.51 µM) | < 0.125 µg/mL | Non-Toxic | < 0.125 µg/mL | 4 µg/mL (≈ 8.15 µM) | > 64 µg/mL | 2 µg/mL (≈ 4.08 µM) | < 0.125 µg/mL | < 0.125 µg/mL | < 0.125 µg/mL | 1 µg/mL (≈ 2.04 µM) | Non-Toxic | 0.25 µg/mL (≈ 0.51 µM) | 64 µg/mL (≈ 130 µM) | 0.5 µg/mL (≈ 1.02 µM) | < 0.125 µg/mL | 0.5 µg/mL (≈ 1.02 µM) | MIC [23]: < 0.125 µg/mL; Activity [24]: Toxic; Activity [25]: inactive; Activity [26]: Toxic; microsomal CLint [27]: 10.9 µL/min/mg; Activity [28]: Toxic; Activity [29]: Non-Toxic; Activity [30]: Toxic; Activity [31]: Active; half-life [32]: 2.13 h; Activity [33]: Toxic; MIC [34]: 0.25 µg/mL (≈ 0.51 µM); k el [35]: 8.33e-05 s⁻¹; Activity [36]: inactive; Activity [37]: Toxic; Activity [38]: Active; Activity [39]: inactive; MIC [40]: 0.25 µg/mL (≈ 0.51 µM)
O=C(O)c1ccc(-n2nc(-c3ccccc3O)nc2-c2ccccc2O)cc1 [DEFERASIROX] | 8 µg/mL (≈ 21.4 µM) | 4 µg/mL (≈ 10.7 µM) | 0.25 µg/mL (≈ 0.67 µM) | 8 µg/mL (≈ 21.4 µM) | 0.5 µg/mL (≈ 1.34 µM) |  | 2 µg/mL (≈ 5.36 µM) | > 64 µg/mL | > 64 µg/mL | 8 µg/mL (≈ 21.4 µM) | 0.5 µg/mL (≈ 1.34 µM) | 2 µg/mL (≈ 5.36 µM) | 2 µg/mL (≈ 5.36 µM) | 8 µg/mL (≈ 21.4 µM) |  | 2 µg/mL (≈ 5.36 µM) | 32 µg/mL (≈ 85.7 µM) | 8 µg/mL (≈ 21.4 µM) | 0.5 µg/mL (≈ 1.34 µM) | 8 µg/mL (≈ 21.4 µM) | MIC [23]: 2 µg/mL (≈ 5.36 µM); Activity [24]: Toxic; microsomal CLint [27]: 5.94 µL/min/mg; Activity [28]: Toxic; Activity [41]: Toxic; Activity [42]: Toxic; Activity [43]: Toxic; half-life [32]: 3.9 h; Activity [33]: Toxic; MIC [34]: 2 µg/mL (≈ 5.36 µM); k el [35]: 5e-05 s⁻¹; Activity [37]: Toxic; MIC [40]: 2 µg/mL (≈ 5.36 µM)
